In ChEMBL document CHEMBL4507286 (2021):

Assays:
[1] = tested on: Tyrosine-protein kinase ABL1 (Homo sapiens), P00519 [Q252H]
[2] = biological target: Tyrosine-protein kinase ABL1 (Homo sapiens) (UniProt P00519)
[3] = biological target: Aurora kinase B (Homo sapiens) (UniProt Q96GD4)
[4] = biological target: Calcium/calmodulin-dependent protein kinase type II subunit gamma (Homo sapiens) (UniProt Q13555)
[5] = biological target: Calcium/calmodulin-dependent protein kinase kinase 2 (Homo sapiens) (UniProt Q96RR4)
[6] = biological target: Cyclin-dependent kinase 4 (Homo sapiens) (UniProt P11802)
[7] = biological target: Cyclin-dependent kinase-like 2 (Homo sapiens) (UniProt Q92772)
[8] = biological target: Cyclin-dependent kinase-like 5 (Homo sapiens) (UniProt O76039)
[9] = biological target: Serine/threonine-protein kinase Chk2 (Homo sapiens) (UniProt O96017)
[10] = biological target: Serine/threonine-protein kinase 17B (Homo sapiens) (UniProt O94768)
[11] = tested on: Epidermal growth factor receptor (Homo sapiens), P00533 [UNDEFINED MUTATION]
[12] = biological target: Ephrin type-A receptor 1 (Homo sapiens) (UniProt P21709)
[13] = biological target: Ephrin type-A receptor 6 (Homo sapiens) (UniProt Q9UF33)
[14] = biological target: Ephrin type-B receptor 2 (Homo sapiens) (UniProt P29323)
[15] = biological target: Receptor tyrosine-protein kinase erbB-4 (Homo sapiens) (UniProt Q15303)
[16] = biological target: Mitogen-activated protein kinase 3 (Homo sapiens) (UniProt P27361)
[17] = biological target: Fibroblast growth factor receptor 3 (Homo sapiens) (UniProt P22607)
Fibroblast growth factor receptor 3 (Homo sapiens), sequence (P22607 23-806 limits assumed): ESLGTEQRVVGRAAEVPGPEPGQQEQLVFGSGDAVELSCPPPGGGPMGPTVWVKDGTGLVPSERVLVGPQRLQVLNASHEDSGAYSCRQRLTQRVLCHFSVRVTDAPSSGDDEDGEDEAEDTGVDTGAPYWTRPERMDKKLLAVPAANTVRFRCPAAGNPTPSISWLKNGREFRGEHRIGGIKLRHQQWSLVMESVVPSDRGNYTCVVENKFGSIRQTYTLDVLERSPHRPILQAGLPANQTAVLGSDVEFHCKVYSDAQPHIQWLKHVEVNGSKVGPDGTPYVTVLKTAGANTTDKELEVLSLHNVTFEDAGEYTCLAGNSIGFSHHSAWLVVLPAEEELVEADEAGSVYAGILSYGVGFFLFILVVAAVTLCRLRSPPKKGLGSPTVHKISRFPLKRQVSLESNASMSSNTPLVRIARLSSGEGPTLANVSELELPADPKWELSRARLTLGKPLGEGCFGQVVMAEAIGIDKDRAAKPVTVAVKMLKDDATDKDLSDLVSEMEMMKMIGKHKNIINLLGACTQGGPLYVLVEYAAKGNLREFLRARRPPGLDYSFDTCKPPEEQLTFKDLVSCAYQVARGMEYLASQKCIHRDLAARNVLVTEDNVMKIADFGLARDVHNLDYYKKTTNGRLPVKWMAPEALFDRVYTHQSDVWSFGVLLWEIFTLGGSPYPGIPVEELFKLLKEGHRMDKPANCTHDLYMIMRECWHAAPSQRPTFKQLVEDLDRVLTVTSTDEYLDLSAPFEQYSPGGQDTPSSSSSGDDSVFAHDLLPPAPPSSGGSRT

[18] = tested on: Receptor-type tyrosine-protein kinase FLT3 (Homo sapiens), P36888 [N841I]
[19] = biological target: Vascular endothelial growth factor receptor 3 (Homo sapiens) (UniProt P35916)
[20] = biological target: Cyclin-G-associated kinase (Homo sapiens) (UniProt O14976)
[21] = biological target: G protein-coupled receptor kinase 3 (Homo sapiens) (UniProt P35626)
[22] = biological target: G protein-coupled receptor kinase 4 (Homo sapiens) (UniProt P32298)
[23] = biological target: Glycogen synthase kinase-3 alpha (Homo sapiens, UniProt P49840)
Glycogen synthase kinase-3 alpha, sequence (P49840 2-483 limits assumed): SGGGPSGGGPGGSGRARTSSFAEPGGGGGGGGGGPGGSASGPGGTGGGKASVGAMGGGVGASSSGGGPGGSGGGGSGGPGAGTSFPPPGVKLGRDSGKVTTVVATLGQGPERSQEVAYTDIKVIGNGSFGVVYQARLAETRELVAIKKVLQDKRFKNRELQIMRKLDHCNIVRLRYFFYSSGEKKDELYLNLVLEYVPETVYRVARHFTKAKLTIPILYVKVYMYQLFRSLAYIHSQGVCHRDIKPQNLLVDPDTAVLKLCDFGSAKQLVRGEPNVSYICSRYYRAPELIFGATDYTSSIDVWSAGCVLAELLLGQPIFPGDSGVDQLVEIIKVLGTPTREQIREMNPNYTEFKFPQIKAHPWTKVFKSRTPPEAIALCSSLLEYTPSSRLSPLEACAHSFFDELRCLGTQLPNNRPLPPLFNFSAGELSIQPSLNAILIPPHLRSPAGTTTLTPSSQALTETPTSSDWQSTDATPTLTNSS

[24] = biological target: Homeodomain-interacting protein kinase 1 (Homo sapiens) (UniProt Q86Z02)
[25] = biological target: Hormonally up-regulated neu tumor-associated kinase (Homo sapiens) (UniProt P57058)
[26] = tested on: Mast/stem cell growth factor receptor Kit (Homo sapiens), P10721 [D816V]
[27] = biological target: Serine/threonine-protein kinase MAK (Homo sapiens) (UniProt P20794)
[28] = biological target: Myosin light chain kinase family member 4 (Homo sapiens) (UniProt Q86YV6)
Myosin light chain kinase family member 4 (Homo sapiens), sequence (Q86YV6 whole entry): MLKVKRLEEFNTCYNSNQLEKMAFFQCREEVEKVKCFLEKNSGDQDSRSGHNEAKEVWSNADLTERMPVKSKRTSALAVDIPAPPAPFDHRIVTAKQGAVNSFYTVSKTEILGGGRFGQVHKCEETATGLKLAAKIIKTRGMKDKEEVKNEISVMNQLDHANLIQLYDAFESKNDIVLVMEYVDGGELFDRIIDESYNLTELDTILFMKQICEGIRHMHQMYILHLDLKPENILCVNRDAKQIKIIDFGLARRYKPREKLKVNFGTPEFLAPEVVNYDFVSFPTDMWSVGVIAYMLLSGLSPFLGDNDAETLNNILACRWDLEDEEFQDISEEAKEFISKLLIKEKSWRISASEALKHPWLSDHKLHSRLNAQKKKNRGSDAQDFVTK

[29] = biological target: Serine/threonine-protein kinase NIM1 (Homo sapiens) (UniProt Q8IY84)
[30] = biological target: 1-phosphatidylinositol 3-phosphate 5-kinase (Homo sapiens) (UniProt Q9Y2I7)
[31] = biological target: cAMP-dependent protein kinase catalytic subunit beta (Homo sapiens) (UniProt P22694)
[32] = biological target: Serine/threonine-protein kinase PLK4 (Homo sapiens) (UniProt O00444)
[33] = biological target: Interferon-induced, double-stranded RNA-activated protein kinase (Homo sapiens) (UniProt P19525)
[34] = biological target: Ribosomal protein S6 kinase alpha-4 (Homo sapiens) (UniProt O75676)
Ribosomal protein S6 kinase alpha-4 (Homo sapiens), sequence (O75676 whole entry, looked up): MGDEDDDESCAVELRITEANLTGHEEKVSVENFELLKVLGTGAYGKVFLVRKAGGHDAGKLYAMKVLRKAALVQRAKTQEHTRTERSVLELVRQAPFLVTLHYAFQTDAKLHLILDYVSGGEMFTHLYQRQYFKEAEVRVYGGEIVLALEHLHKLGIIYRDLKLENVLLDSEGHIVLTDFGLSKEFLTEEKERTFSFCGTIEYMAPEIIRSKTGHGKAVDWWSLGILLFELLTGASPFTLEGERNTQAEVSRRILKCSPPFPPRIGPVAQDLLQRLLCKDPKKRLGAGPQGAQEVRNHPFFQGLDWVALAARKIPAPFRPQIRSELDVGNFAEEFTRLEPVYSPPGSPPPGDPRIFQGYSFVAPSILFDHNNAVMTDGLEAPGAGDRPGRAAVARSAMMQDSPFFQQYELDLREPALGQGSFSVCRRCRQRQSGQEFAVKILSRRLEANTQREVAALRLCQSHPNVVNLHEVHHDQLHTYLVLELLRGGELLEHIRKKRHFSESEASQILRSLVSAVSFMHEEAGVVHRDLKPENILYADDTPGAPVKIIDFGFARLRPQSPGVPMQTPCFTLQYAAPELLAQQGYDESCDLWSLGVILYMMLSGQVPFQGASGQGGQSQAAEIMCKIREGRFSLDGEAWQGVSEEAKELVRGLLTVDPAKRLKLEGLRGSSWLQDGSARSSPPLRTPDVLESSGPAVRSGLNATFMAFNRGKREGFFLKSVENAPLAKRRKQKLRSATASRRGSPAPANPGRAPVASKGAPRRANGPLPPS

[35] = biological target: Ribosomal protein S6 kinase alpha-6 (Homo sapiens) (UniProt Q9UK32)
Ribosomal protein S6 kinase alpha-6 (Homo sapiens), sequence (Q9UK32 whole entry): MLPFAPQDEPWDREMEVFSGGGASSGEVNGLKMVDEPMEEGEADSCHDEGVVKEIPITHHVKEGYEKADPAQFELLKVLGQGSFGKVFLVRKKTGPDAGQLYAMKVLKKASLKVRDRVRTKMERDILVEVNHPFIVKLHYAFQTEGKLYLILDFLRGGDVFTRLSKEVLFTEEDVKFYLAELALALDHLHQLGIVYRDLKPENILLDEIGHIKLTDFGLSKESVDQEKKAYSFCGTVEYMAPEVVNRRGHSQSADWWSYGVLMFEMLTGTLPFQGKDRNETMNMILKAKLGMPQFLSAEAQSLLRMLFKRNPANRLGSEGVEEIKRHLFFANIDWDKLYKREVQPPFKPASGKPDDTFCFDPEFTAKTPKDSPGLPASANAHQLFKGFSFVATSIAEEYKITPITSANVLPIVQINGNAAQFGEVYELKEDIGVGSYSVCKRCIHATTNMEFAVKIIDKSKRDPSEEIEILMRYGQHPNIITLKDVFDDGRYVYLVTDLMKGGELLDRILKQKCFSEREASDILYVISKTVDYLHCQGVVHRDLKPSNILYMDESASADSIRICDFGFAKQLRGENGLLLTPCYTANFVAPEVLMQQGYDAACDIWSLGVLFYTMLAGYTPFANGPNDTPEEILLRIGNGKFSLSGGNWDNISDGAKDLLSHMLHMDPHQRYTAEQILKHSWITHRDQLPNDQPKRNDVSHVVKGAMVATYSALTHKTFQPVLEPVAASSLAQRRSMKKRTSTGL

[36] = biological target: Serine/threonine-protein kinase Sgk2 (Homo sapiens) (UniProt Q9HBY8)
Serine/threonine-protein kinase Sgk2 (Homo sapiens), sequence (Q9HBY8 whole entry): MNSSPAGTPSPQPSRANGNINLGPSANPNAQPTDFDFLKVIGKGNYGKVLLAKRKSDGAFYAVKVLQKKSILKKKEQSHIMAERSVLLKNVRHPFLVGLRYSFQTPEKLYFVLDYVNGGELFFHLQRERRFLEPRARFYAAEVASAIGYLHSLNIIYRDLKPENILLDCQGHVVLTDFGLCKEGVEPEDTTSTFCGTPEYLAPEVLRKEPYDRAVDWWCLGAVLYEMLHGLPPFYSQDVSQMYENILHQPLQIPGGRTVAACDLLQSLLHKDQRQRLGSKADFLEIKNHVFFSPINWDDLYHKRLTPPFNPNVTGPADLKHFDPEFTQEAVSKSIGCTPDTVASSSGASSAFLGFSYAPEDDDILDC

[37] = biological target: SRSF protein kinase 1 (Homo sapiens) (UniProt Q96SB4)
[38] = biological target: SRSF protein kinase 2 (Homo sapiens) (UniProt P78362)
[39] = biological target: TGF-beta receptor type-1 (Homo sapiens) (UniProt P36897)
[40] = biological target: Serine/threonine-protein kinase tousled-like 2 (Homo sapiens) (UniProt Q86UE8)
[41] = biological target: Non-receptor tyrosine-protein kinase TYK2 (Homo sapiens) (UniProt P29597)
[42] = biological target: Serine/threonine-protein kinase ULK1 (Homo sapiens) (UniProt O75385)
Serine/threonine-protein kinase ULK1 (Homo sapiens), sequence (O75385 whole entry): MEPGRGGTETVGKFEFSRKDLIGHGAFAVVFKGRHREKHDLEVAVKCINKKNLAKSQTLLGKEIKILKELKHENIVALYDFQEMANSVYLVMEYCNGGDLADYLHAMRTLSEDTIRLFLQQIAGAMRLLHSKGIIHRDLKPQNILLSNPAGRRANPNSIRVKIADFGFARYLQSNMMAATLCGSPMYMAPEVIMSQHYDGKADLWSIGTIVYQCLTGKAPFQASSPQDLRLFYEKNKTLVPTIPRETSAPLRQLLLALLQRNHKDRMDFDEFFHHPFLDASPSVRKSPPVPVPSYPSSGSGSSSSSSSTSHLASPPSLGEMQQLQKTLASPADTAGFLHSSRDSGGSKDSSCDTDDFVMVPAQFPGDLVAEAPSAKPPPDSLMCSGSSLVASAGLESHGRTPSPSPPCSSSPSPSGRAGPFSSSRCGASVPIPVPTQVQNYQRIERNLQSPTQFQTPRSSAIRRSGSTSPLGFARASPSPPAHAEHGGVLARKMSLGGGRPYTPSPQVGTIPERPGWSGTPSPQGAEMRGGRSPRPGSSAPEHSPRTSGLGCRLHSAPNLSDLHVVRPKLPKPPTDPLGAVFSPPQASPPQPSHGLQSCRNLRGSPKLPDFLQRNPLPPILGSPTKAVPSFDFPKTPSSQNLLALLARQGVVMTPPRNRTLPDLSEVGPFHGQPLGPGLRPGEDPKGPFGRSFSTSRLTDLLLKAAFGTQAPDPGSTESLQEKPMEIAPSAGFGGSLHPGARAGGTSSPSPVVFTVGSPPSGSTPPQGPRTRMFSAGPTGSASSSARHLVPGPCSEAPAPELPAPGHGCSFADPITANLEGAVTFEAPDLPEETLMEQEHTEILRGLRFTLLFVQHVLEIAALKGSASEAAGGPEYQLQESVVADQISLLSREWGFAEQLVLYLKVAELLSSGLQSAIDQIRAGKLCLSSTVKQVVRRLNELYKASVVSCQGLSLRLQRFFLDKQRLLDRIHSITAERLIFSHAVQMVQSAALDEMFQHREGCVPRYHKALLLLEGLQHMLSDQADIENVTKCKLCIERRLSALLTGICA

[43] = biological target: Wee1-like protein kinase 2 (Homo sapiens) (UniProt P0C1S8)
[44] = biological target: D(4) dopamine receptor (Homo sapiens) (UniProt P21917); conditions: Compound concentration 10.0 uM
[45] = biological target: Histamine H1 receptor (Homo sapiens) (UniProt P35367); conditions: Compound concentration 10.0 uM
[46] = species on record: Rattus norvegicus; conditions: Compound concentration 10.0 uM
[47] = Compound concentration 1000.0 nM
[48] = Compound concentration 100.0 nM

Aurora kinase B (Homo sapiens), sequence (Q96GD4 whole entry): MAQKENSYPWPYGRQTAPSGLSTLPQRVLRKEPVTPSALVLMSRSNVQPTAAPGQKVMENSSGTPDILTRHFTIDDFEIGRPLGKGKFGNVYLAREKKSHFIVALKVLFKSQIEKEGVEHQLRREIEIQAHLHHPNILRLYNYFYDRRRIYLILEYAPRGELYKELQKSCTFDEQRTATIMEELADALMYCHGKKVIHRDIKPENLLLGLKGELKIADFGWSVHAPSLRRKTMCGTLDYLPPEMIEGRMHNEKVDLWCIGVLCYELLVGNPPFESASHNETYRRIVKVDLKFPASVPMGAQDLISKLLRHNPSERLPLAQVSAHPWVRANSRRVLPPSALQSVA

For `C[C@H](NC(=O)Nc1cc2[nH]ncc2c(CO)n1)c1ccccn1` [ERKi-NC], the residual activity [1, 47] was 42.7%, the residual activity [2, 47] was 72.8% and the residual activity [3, 47] was 79.8%. The residual activity [4, 47] was 100%, the residual activity [5, 47] was 85.4% and the residual activity [6, 47] was 89.8%. The residual activity [7, 47] was 100%, the residual activity [8, 47] was 100% and the residual activity [9, 47] was 95.9%. It also gave a residual activity [10, 47] of 100%, a residual activity [11, 47] of 100% and a residual activity [12, 47] of 100%. For the same molecule, the residual activity [13, 47] was 89%, the residual activity [14, 47] was 100% and the residual activity [15, 47] was 100%. For the same molecule, the residual activity [16, 47] was 17%, the residual activity [17, 47] was 81.8% and the residual activity [18, 47] was 100%. For the same molecule, the residual activity [19, 47] was 100%, the residual activity [20, 47] was 100% and the residual activity [21, 47] was 88.7%. It also gave a residual activity [22, 47] of 85.2%, a residual activity [23, 47] of 100% and a residual activity [24, 47] of 48.9%. It also gave a residual activity [25, 47] of 100%, a residual activity [26, 47] of 100% and a residual activity [27, 47] of 84.1%. The residual activity [28, 47] was 100%, the residual activity [29, 47] was 100% and the residual activity [30, 47] was 100%. For the same molecule, the residual activity [31, 47] was 91.5%, the residual activity [32, 47] was 100% and the residual activity [33, 47] was 71.8%. For the same molecule, the residual activity [34, 47] was 100%, the residual activity [35, 47] was 82.7% and the residual activity [36, 47] was 100%. For the same molecule, the residual activity [37, 47] was 100%, the residual activity [38, 47] was 100% and the residual activity [39, 47] was 60.8%. It also gave a residual activity [40, 47] of 88.4%, a residual activity [41, 47] of 100% and a residual activity [42, 47] of 100%. The residual activity [43, 47] was 100%, the inhibition [44] was 16.6% and the inhibition [45] was 4.18%. For the same molecule, the inhibition [46] was -1.65%.

Molecule `C[C@@H](NC(=O)Nc1cc2[nH]ncc2c(CO)n1)c1ccccc1` [ERKi] has a residual activity [1, 48] of 88.4%, a residual activity [2, 48] of 87% and a residual activity [3, 48] of 100%. It also gave a residual activity [4, 48] of 84.6%, a residual activity [5, 48] of 75.2% and a residual activity [6, 48] of 100%. It also gave a residual activity [7, 48] of 81%, a residual activity [8, 48] of 88.3% and a residual activity [9, 48] of 100%. It also gave a residual activity [10, 48] of 95.8%, a residual activity [11, 48] of 94.6% and a residual activity [12, 48] of 100%. The residual activity [13, 48] was 100%, the residual activity [14, 48] was 83.3% and the residual activity [15, 48] was 97.6%. The residual activity [16, 48] was 0.2%, the residual activity [17, 48] was 85.4% and the residual activity [18, 48] was 88.2%. The residual activity [19, 48] was 100%, the residual activity [20, 48] was 100% and the residual activity [21, 48] was 60.8%. For the same molecule, the residual activity [22, 48] was 100%, the residual activity [23, 48] was 88% and the residual activity [24, 48] was 83.1%. It also gave a residual activity [25, 48] of 100%, a residual activity [26, 48] of 82.7% and a residual activity [27, 48] of 97.9%. It also gave a residual activity [28, 48] of 99.5%, a residual activity [29, 48] of 100% and a residual activity [30, 48] of 76.7%. The residual activity [31, 48] was 77%, the residual activity [32, 48] was 71.6% and the residual activity [33, 48] was 78.1%. It also gave a residual activity [34, 48] of 72.5%, a residual activity [35, 48] of 96.8% and a residual activity [36, 48] of 66.7%. It also gave a residual activity [37, 48] of 85.5%, a residual activity [38, 48] of 61.2% and a residual activity [39, 48] of 100%. It also gave a residual activity [40, 48] of 86.9%, a residual activity [41, 48] of 97.8% and a residual activity [42, 48] of 48.6%. For the same molecule, the residual activity [43, 48] was 77.6%, the inhibition [44] was -1% and the inhibition [45] was -7.28%. The inhibition [46] was 8.66%.
